In patent US20020026052A1, “3-cyanoquinolines, 3-cyano-1,6-naphthyridines, and 3-cyano-1,7-naphthyridines as protein kinase inhibitors” (American Home Products Corporation, priority 2000, published 2002):

Compound	melting point
CN(CCO)Cc1ccc(-c2ccc3c(Nc4ccc(Sc5nccn5C)c(Cl)c4)c(C#N)cnc3c2)nc1 [Example 106, 4-({3-Chloro-4-[(1-methyl-IH-irnidazol-2-yl)sulfanyl]phenyl}amino)-7-(5-{[(2-hydroxyethyl) (methyl)amino]methyl}-2-pyridinyl)-3-quinolinecarbonitrile]	197 to 199 °C
COc1cc(Nc2c(C#N)cnc3cc(-c4csc(C5OCCO5)c4)ccc23)c(Cl)cc1Cl [Example 42, 4-(2,4-dichloro-5-methoxyanilino)-7-[5-(1,3-dioxolan-2-yl)-3-thienyl]-3-quinoline-carbonitrile]	234 to 236 °C
COc1cc(Nc2c(C#N)cnc3cc(-c4ccc(CN5CCOCC5)c(CN5CCOCC5)c4)ccc23)c(Cl)cc1Cl [Example 34, 7-[3,4-bis(4-morpholinylmethyl)phenyl]-4-(2,4-dichloro-5-methoxyanilino)-3-quinolinecarbonitrile]	198 to 200 °C
Cn1ccnc1Sc1ccc(Nc2c(C#N)cnc3cc(-c4ccc(CN5CCCCC5)s4)ccc23)cc1Cl [Example 160, 4-{3-Chloro-4-[(1-methyl-1H-imidazol-2-yl)sulfanyl]anilino}-7-[5-(1-piperidinylmethyl)-2-thienyl]-3-quinolinecarbonitrile]	100 °C (dec.)
COc1cc(Nc2c(C#N)cnc3cc(-c4ccc(CN5CC[S+]([O-])CC5)cc4)ccc23)c(Cl)cc1Cl [Example 151, 4-[(2,4-Dichloro-5-methoxyphenyl)amino]-7-{4-[(1-oxido-4-thiomorpholinyl)methyl]phenyl}-3-quinolinecarbonitrile]	244 to 247 °C
COc1ccc(-c2cc3ncc(C#N)c(Nc4ccc(Sc5nccn5C)c(Cl)c4)c3cc2OC)cc1 [Example 127, 4-{3-Chloro-4-[(I -methyl-iH-imidazol-2-yl)sulfanyl]anilino}-6-methoxy-7-(4-methoxyphenyl)-3-quinolinecarbonitrile]	227 to 229 °C
COc1cc(Nc2c(C#N)cnc3cc(-c4ccc(CN5CCOCC5)cn4)ccc23)c(Cl)cc1Cl	220 to 222 °C
CCN1CCN(Cc2ccc(-c3ccc4c(Nc5ccc(Sc6nccn6C)c(Cl)c5)c(C#N)cnc4c3)cn2)CC1 [Example 220, 4-({3-Chloro-4-[(1-methyl-1H-imidazol-2-yl)sulfanyl]phenyl}amino)-7-1-{6-[(4-ethyl-1-piperazinyl)methyl]-3-pyridinyl}-3-quinolinecarbonitrile]	192 to 195 °C
Cn1ccnc1Sc1ccc(Nc2c(C#N)cnc3cc(-c4ccc(CN5CCOCC5)nc4)ccc23)cc1Cl [Example 109, 4-({3-chloro-4-[(1-methylimidazol-2-yl)sulfanyl]phenyl}amino)-7-[6-(4-morpholinylmethyl)-3-pyridinyl]-3-quinolinecarbonitrile]	233 to 235 °C
COCCN(C)c1ccc(-c2ccc3c(Nc4ccc(Sc5nccn5C)c(Cl)c4)c(C#N)cnc3c2)cn1 [Example 212, 4-({3-Chloro-4-[(1-methyl-1H-imidazol-2-yl)sulfanyl]phenyl}amino)-7-{6-[(2-methoxyethyl) (methyl)amino]-3-pyridinyl}-3-quinolinecarbonitrile]	224 to 226 °C
COc1cc(Nc2c(C#N)cnc3cc(-c4cnc(CN5CCN(C)CC5)n4C)ccc23)c(Cl)cc1Cl [Example 227, 4-(2,4-Dichloro-5-methoxyanilino)-7-{1-methyl-2-[(4-methyl-1-piperazinyl)methyl]-1H-imidazol-5-yl}-3-quinolinecarbonitrile]	156 to 159 °C
N#Cc1cnc2ccc(-n3cccc3C=O)cc2c1Nc1cccc(Br)c1 [Example 60, 4-(3-Bromoanilino)-6-(2-formyl-1H-pyrrol-1-yl)-3-quinolinecarbonitrile]	94 to 95 °C
COc1cc(Nc2c(C#N)cnc3cc(-c4ccc(CN5CCN(C)CC5)cn4)ccc23)c(Cl)cc1Cl	212 to 215 °C
